According to patent publication US5389663A, “1-(1h-1,2,4-triazole-yl)-2-propanol compounds” (Takeda Chemical Industries, Ltd., priority 1991, dated 1995):

These molecules were tested on Candida albicans IFO 0583 (assay: Paper disc agar diffusion, growth inhibition zone, Candida albicans IFO 0583). Conditions: Candida albicans, IFO0583, 48 h, Table 5; Medium A, 28° C., two-day culture, 1000 μ/ml, 8 mm disc; read-out: Diameter of growth-inhibition zone.
Assay type: cell-based
Experimental: Evaluation of the antifungal activities of the compound of formula (I) was conducted by the following method: a sheet of filter paper disc (manufactured by Toyo Seisakusho, 8 mm in diameter) soaked in a […] solution of a compound of formula (I) in methanol was placed on an agar plate containing various fungi, which was incubated at 28° C. for two days, and the diameter of the growth inhibition zone around the filter paper disc was measured. The following culture media were used: A: yeast nitrogen base agar medium (pH 7.0) B: Sabouraud agar medium
cpd. No. (Medium A, 28° C., two-day culture)

Going from `C[C@@H](N(C)S(=O)(=O)c1nccn1C)[C@](O)(Cn1cncn1)c1ccc(F)cc1F` [Compound 88] to `C[C@@H](N(C)S(=O)(=O)c1cccs1)[C@](O)(Cn1cncn1)c1ccc(F)cc1F` [Compound 90], the zone of inhibition at 1000 µg/mL falls from 46 mm to 40 mm.

Going from `CC(=C(Cn1cncn1)c1ccc(F)cc1F)S(=O)(=O)N(C)C` (single isomer, unassigned) [Compound 34, N,N-dimethyl-3-(2,4-difluorophenyl)-4-(1H-1,2,4-triazol-1-yl)-2-butene-2-sufonamide] to `CCCCNS(=O)(=O)C(C)=C(Cn1cncn1)c1ccc(F)cc1F` (single isomer, unassigned) [Compound 32, N-butyl-3-(2,4-difluorophenyl)-4-(1H-1,2,4-triazol-1-yl) -2-butene-2-sulfonamide], the zone of inhibition at 1000 µg/mL falls from 15 mm to 12 mm.

Compared with `C[C@@H](NS(=O)(=O)c1cccs1)[C@](O)(Cn1cncn1)c1ccc(F)cc1F` [Compound 87], `C[C@@H](NS(=O)(=O)c1ccc(N)cc1)[C@](O)(Cn1cncn1)c1ccc(F)cc1F` [Compound 52] is lower in zone of inhibition at 1000 µg/mL: 38 mm for the first, 35 mm for the second.

First: C[C@H]([C@](O)(Cn1cncn1)c1ccc(F)cc1F)S(=O)(=O)N1CCN(Cc2nncn2C)CC1 [Compound 26, 1-[(2R,3R)-3-(2,4-difluorophenyl)-3-hydroxy-4-(1H-1,2,4-triazol-1-yl)-2-butylsulfonyl]-4-(4-methyl-4H-1,2,4-triazol-3-ylmethyl) piperazine]
Second: CC(=O)N1CCN(S(=O)(=O)[C@H](C)[C@](O)(Cn2cncn2)c2ccc(F)cc2F)CC1 [Compound 25, 1-acetyl-4-[(2R,3R)-3-(2,4-difluorophenyl)-3-hydroxy-4-(1H-1,2,4-triazol-1-yl)-2-butylsulfonyl]piperazine]
The zone of inhibition at 1000 µg/mL of the first is lower: 20 mm for the first, 30 mm for the second.

Compared with `C[C@@H]([S+]([O-])N1CCN(C(=O)OC(C)(C)C)CC1)[C@](O)(Cn1cncn1)c1ccc(F)cc1F` (stereo partly shown) [Compound 18], `C[C@H]([C@](O)(Cn1cncn1)c1ccc(F)cc1F)S(=O)(=O)N1CCN(C(=O)OC(C)(C)C)CC1` [Compound 19, 1-tert-butoxycarbonyl-4-[(2R,3R)-3-(2,4-difluorophenyl)-3-hydroxy-4-(1H-i,2,4-triazol-1-yl) -2-butylsulfonyl]piperazine] is higher in zone of inhibition at 1000 µg/mL: 37 mm for the first, 40 mm for the second.

Going from `COc1ccc(CNS(=O)(=O)[C@H](C)[C@](O)(Cn2cncn2)c2ccc(F)cc2F)cc1OC` [Compound 60, N-(3,4-dimethoxybenzyl)-[(2R,3R)-3-(2,4-difluorophenyl)-3-hydroxy-4-(1H-1,2,4-triazol-1-yl)-2-butane]sulfonamide] to `C[C@H]([C@](O)(Cn1cncn1)c1ccc(F)cc1F)S(=O)(=O)NCc1nncn1C` [Compound 41, N-(4-methyl-4H-1,2,4-triazol-3-ylmethyl)-[(2R,3R)-3-(2,4-difluorophenyl)-3-hydroxy-4-(1H-1,2,4-triazol-1-yl)-2-butane]sulfonamide], the zone of inhibition at 1000 µg/mL falls from 35 mm to 23 mm.

`C[C@H]([C@](O)(Cn1ccnc1)c1ccc(F)cc1F)S(=O)(=O)N(C)C` [Compound 85, N,N-dimethyl-[(2R,3R)-3-(2,4-difluorophenyl)-3-hydroxy-4-(1-imidazolyl)-2-butane]sulfonamide] and `C#CCN(C)S(=O)(=O)[C@H](C)[C@](O)(Cn1cncn1)c1ccc(F)cc1F` [Compound 62, N-methyl-N-(2-propinyl)-[(2R,3R)-3-(2,4-difluorophenyl)-3-hydroxy-4-(1H-1,2,4-triazol-1-yl)-2-butane]sulfonamide] are the same in zone of inhibition at 1000 µg/mL: 45 mm for the first, 45 mm for the second.

`Cc1nnc(N(C)S(=O)(=O)[C@H](C)[C@](O)(Cn2cncn2)c2ccc(F)cc2F)s1` [Compound 81] and `CSc1nnc(CN(C)S(=O)(=O)[C@H](C)[C@](O)(Cn2cncn2)c2ccc(F)cc2F)s1` [Compound 82] are the same in zone of inhibition at 1000 µg/mL: 40 mm for the first, 40 mm for the second.

`C[C@H]([C@](O)(Cn1cncn1)c1ccc(F)cc1F)S(=O)(=O)N(C)C/C=C/C#CC(C)(C)C` [Compound 68, N-[(E)-6,6-dimethyl-2-hepten-4-ynyl]-N-methyl-[(2R,3R)-3-(2,4-difluorophenyl)-3-hydroxy-4-(1H-1,2,4-triazol-1-yl)-2-butane]sulfonamide] and `C[C@H]([C@](O)(Cn1cncn1)c1ccc(F)cc1F)S(=O)(=O)N(C)C/C=C\C#CC(C)(C)C` [Compound 69] are the same in zone of inhibition at 1000 µg/mL: 42 mm for the first, 42 mm for the second.

Going from `C[C@@H](N1CCCS1(=O)=O)[C@](O)(Cn1cncn1)c1ccc(F)cc1F` [Compound 57] to `C[C@H]([C@](O)(Cn1cncn1)c1ccc(F)cc1F)S(=O)(=O)N1CCCC1` [Compound 28, 1-[(2R,3R)-3-(2,4-difluorophenyl)-3-hydroxy-4-(1H-1,2,4-triazol-1-yl)-2-butylsulfonyl]pyrrolidine], the zone of inhibition at 1000 µg/mL rises from 35 mm to 50 mm.

Going from `C[C@H]([C@](O)(Cn1cncn1)c1ccc(F)cc1F)S(=O)(=O)N(C)Cc1ccccc1` [Compound 47, N-benzyl-N-methyl-[(2R,3R)-3-(2,4-difluorophenyl)-3-hydroxy-4-(1H-1,2,4-triazol-1-yl)-2-butane]sulfonamide] to `C[C@H]([C@](O)(Cn1cncn1)c1ccc(F)cc1F)S(=O)(=O)N(C)Cc1ccc(C(F)(F)F)cc1` [Compound 66, N-methyl-N-(4-trifluoromethylbenzyl)-[(2R,3R)-3-(2,4-difluorophenyl)-3-hydroxy-4-(1H-1,2,4-triazol-1-yl)-2-butane]sulfonamide], the zone of inhibition at 1000 µg/mL falls from 45 mm to 42 mm.

Going from `C[C@H]([C@](O)(Cn1cncn1)c1ccc(F)cc1F)S(=O)(=O)N1CCNCC1` [Compound 20, 1-[(2R,3R)-3-(2,4-difluorophenyl)-3hydroxy-4-(1H-2,4-triazol-1-yl)-2-butylsulfonyl]piperazine] to `C[C@H]([C@](O)(Cn1cncn1)c1ccc(F)cc1F)S(=O)(=O)N1CCN(c2ccccn2)CC1` [Compound 74, 4-[(2R,3R)-3-(2,4-difluorophenyl)-3-hydroxy-4-(1H-1,2,4-triazol-1-yl)-2-butanesulfonyl]-1-(2-pyridyl) piperazine], the zone of inhibition at 1000 µg/mL rises from 22 mm to 44 mm.

Compared with `C[C@@H](SNC1CCCCC1)[C@](O)(Cn1cncn1)c1ccc(F)cc1F` [Compound 5], `C[C@@H](NS(=O)(=O)CCCCl)[C@](O)(Cn1cncn1)c1ccc(F)cc1F` [Compound 56] is lower in zone of inhibition at 1000 µg/mL: 35 mm for the first, 30 mm for the second.

`C[C@H]([C@](O)(Cn1cncn1)c1ccc(F)cc1F)S(=O)(=O)N(C)CC#CC(C)(C)C` [Compound 63, N-(4,4-dimethyl-2-pentynyl)-N-methyl-[(2R,3R)-3-(2,4-difluorophenyl)-3-hydroxy-4-(1H-1,2,4-triazol-1-yl)-2-butane]sulfonamide] and `Cc1ncsc1CCN(C)S(=O)(=O)[C@H](C)[C@](O)(Cn1cncn1)c1ccc(F)cc1F` [Compound 80] are the same in zone of inhibition at 1000 µg/mL: 40 mm for the first, 40 mm for the second.

First: CCCCCCCCCCCCN(C)S(=O)(=O)[C@H](C)[C@](O)(Cn1cncn1)c1ccc(F)cc1F [Compound 61, N-dodecyl-N-methyl-[(2R,3R)-3-(2,4-difluorophenyl)-3-hydroxy-4-(1H-1,2,4-triazol-1-yl)-2-butane]sulfonamide]
Second: CSc1nnc(CCN(C)S(=O)(=O)[C@H](C)[C@](O)(Cn2cncn2)c2ccc(F)cc2F)s1 [Compound 83]
The zone of inhibition at 1000 µg/mL of the first is lower: 18 mm for the first, 40 mm for the second.

Compared with `CC(=O)Nc1nc(C)c(S(=O)(=O)N(C)[C@H](C)[C@](O)(Cn2cncn2)c2ccc(F)cc2F)s1` [Compound 89], `C[C@H]([C@](O)(Cn1cncn1)c1ccc(F)cc1F)S(=O)(=O)Nc1ccc(Br)cc1` [Compound 22, N-(4-bromophenyl)-[(2R, 3R)-3-(2,4-difluorophenyl)-3-hydroxy-4-(1H-1,2,4-triazol-1-yl)-2-butane]sulfonamide] is lower in zone of inhibition at 1000 µg/mL: 35 mm for the first, 30 mm for the second.

First: C[C@H]([C@](O)(Cn1cncn1)c1ccc(F)cc1F)S(=O)(=O)N1CCN(c2ccc(-n3cnn(CC(F)(F)F)c3=O)cc2)CC1 [Compound 44, 1-[4-[2-(2,2,2-trifluoroethyl)-2,3-dihydro-3-oxo-4H-1,2,4-triazol-4-yl]phenyl]-4-[(2R,3R)-3-(2,4-difluorophenyl)-3-hydroxy-4-(1H-1,2,4-triazol-1-yl)-2-butanesulfonyl]piperazine]
Second: CCC(C)n1ncn(-c2ccc(N3C=CN(S(=O)(=O)[C@H](C)[C@](O)(Cn4cncn4)c4ccc(F)cc4F)CC3)cc2)c1=O (stereo partly drawn) [Compound 43, 1-[4-[2-(2-butyl)-2,3-dihydro-3-oxo-4H-1,2,4-triazol-4-yl]phenyl]-4-[(2R,3R)-3-(2,4-difluorophenyl)-3-hydroxy-4-(1H-1,2,4-triazol-1-yl)-2-butanesulfonyl]-1,2,3,4-tetrahydropyrazine]
The zone of inhibition at 1000 µg/mL of the first is lower: 33 mm for the first, 35 mm for the second.

Going from `C[C@H]([C@](O)(Cn1cncn1)c1ccc(F)cc1F)S(=O)(=O)N(C)Cc1ccc(C(F)(F)F)cc1F` [Compound 67, N-(2-fluoro-4-trifluoromethylbenzyl)-N-methyl-[(2R,3R)-3-(2,4-difluorophenyl)-3-hydroxy-4-(1H-1,2,4-triazol-1-yl)-2-butane]sulfonamide] to `C[C@H]([C@](O)(Cn1cncn1)c1ccc(F)cc1F)S(=O)(=O)N1CCN(c2ncccn2)CC1` [Compound 45, 1-[(2R,3R)-3-(2,4-difluorophenyl)-3-hydroxy-4-(1H-1,2,4-triazol-1-yl)-2-butanesulfonyl]-4-(2-pyrimidinyl) piperazine], the zone of inhibition at 1000 µg/mL rises from 42 mm to 50 mm.

Same assay, conditions: Table 5; Medium A, 28° C., two-day culture, 1000 μ/ml, 8 mm disc

For `CC(=C(Cn1cncn1)c1ccc(F)cc1F)S(=O)(=O)N1CCN(c2ccccc2)CC1` (single isomer, unassigned) [Compound 31, 1-[3-(2,4-difluorophenyl)-4-(1H-1,2,4-triazol-1-yl)-2-buten-2-ylsulfonyl]-4-phenylpiperazine], the “Diameter of growth-inhibition zone” value was 35 mm.
